# In publication PMC5537602, “TRPA1 channel mediates organophosphate-induced delayed neuropathy” (Cell Discovery, 2017):
# How the values were obtained:
# TRPV4 = molecular target: T1, TRPV4 (Homo sapiens, UniProt Q9HBA0); assay: Calcium fluorescence signal, HEK293 cells overexpressing TRPV4; type: cell-based; conditions: 10 μM
# T1 construct: expressed in transfected cells; host or cells: HEK293
# Experimental: (§1) Figure S3. Specificity of malathion for TRPA1 channels. (A-F) Time course of the fluorescence signal induced by malathion (Mala, 10 μM) and the indicated positive agonists (10 μM) in HEK293 cells overexpressing TRPV1 (A), TRPV3 (B), TRPV4 (C), TRPM8 (D), TRPC4 (E) and TRPC5 (F) channels. The fluorescence signals are scaled as F/F0. EC indicates external solution. […]
# (§2) cells for each tested TRP channel. All bars are presented as the mean ± SEM. […]
# TRPM8 = molecular target: T2, TRPM8 (Homo sapiens, UniProt Q7Z2W7); assay: Calcium fluorescence signal, HEK293 cells overexpressing TRPM8; type: cell-based; conditions: 10 μM
# T2 construct: expressed in transfected cells; host or cells: HEK293
# Experimental: as §1, §2
# TRPC5 = molecular target: T3, TRPC5 (Homo sapiens, UniProt Q9UL62); assay: Calcium fluorescence signal, HEK293 cells overexpressing TRPC5; type: cell-based; conditions: 10 μM
# T3 construct: expressed in transfected cells; host or cells: HEK293
# T3 sequence (Q9UL62 1-973): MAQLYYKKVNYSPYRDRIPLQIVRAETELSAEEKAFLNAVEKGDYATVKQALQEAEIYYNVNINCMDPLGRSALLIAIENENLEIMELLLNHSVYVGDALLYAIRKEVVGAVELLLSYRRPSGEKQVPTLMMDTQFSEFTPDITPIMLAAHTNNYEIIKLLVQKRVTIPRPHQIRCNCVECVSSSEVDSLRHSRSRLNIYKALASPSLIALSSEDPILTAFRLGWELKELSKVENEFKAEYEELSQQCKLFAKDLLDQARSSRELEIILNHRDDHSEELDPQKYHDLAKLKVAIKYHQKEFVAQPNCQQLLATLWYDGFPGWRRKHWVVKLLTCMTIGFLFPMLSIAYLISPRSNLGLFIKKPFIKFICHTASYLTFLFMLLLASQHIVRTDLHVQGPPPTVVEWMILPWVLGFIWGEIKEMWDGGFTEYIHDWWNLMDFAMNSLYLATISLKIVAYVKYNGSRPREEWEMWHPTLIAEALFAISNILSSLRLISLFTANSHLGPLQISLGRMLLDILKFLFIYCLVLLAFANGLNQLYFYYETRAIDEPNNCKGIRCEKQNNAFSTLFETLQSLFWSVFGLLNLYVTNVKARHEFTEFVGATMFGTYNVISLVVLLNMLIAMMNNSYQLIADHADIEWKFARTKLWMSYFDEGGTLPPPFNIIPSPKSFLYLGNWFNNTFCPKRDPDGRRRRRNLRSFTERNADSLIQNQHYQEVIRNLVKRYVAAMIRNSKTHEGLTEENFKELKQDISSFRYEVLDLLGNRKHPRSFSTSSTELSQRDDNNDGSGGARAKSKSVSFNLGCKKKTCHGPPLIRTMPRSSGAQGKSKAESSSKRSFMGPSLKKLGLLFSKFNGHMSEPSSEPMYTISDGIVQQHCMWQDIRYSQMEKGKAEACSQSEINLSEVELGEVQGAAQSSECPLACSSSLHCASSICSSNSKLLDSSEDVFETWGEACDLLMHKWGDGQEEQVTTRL
# Experimental: as §1, §2
# [1] = test system: hTRPA1 carrying single mutations (C414A, C421A, C621A, C641A, C665A or K710R); assay: Whole-cell patch-clamp of mutant hTRPA1 channels; type: cell-based, human; conditions: 30 μM malathion
# Experimental: Human embryonic kidney 293 (HEK293) cells were cultured in DMEM containing 10% (vol/vol) heat-inactivated fetal bovine serum, 100 units ml^−1 penicillin–streptomycin and 2 mM L-glutamine at 37 °C in a humidity-controlled sterile incubator with 5% CO2. All cell culture reagents were purchased from Life Technologies. HEK293 cells were transfected transiently with the corresponding plasmids using lipofectamine 2000 (Life Technologies). Transfection efficiency was monitored by co-transfecting EGFP plasmid which codes for the enhanced green fluorescent protein. Electrophysiological recordings were performed between 24 and 36 h after transfection.
# Whole-cell patch-clamp recordings in DRG neurons (small diameter, […]) and HEK293 cells were operated at room temperature (23–25 °C) using EPC-10 amplifier and Patch Master Software (HEKA). […] Currents were sampled at 10 kHz and low-pass filtered at 2.9 kHz. The internal solution was as follows (in mM): 140 CsCl, 10 HEPES, 5 EGTA, 0.1 CaCl2 and 1 MgCl2, with pH adjusted to 7.2 by CsOH and osmolarity 295–300 mOsm. […] TRPA1 currents development was monitored with repetitive injections of 300 ms duration voltage ramps from −100 to +100 mV every 2 s and the holding potential was set to 0 mV for 50 ms, existing in both sides of the voltage ramp. […]
# mTRPA1 = mTRPA1 (Mus musculus, UniProt Q8BLA8); assay: FDSS Ca2+-influx assay, HEK293 cells stably expressing mTRPA1; type: cell-based; set-up: expressed in transfected cells; conditions: HEK293 cells, change in [Ca2+]i; read-out: EC50, activation of mTRPA1
# Experimental: Ca^2+-influx assays were carried out using HEK293 cells stably expressing mTRPA1 channels with an FDSS screening system (Hamamatsu, Japan). Before the start of the assay, HEK293-mTRPA1 cells were plated onto poly-D-Lysine (40 μg ml^−1) coated 96-well black clear bottom plate with the cell density of 300 000 cells per milliliter in DMEM supplemented with 10% (vol/vol) fetal bovine serum, 200 μg ml^−1 Hygromycin B, 15 μg ml^−1 Blasticidin S HCL and 0.3 μg ml^−1 doxycycline, which could induce the expression of mTRPA1. The 96-well plate was then put in sterile incubator overnight. The following day, Ca^2+ influx dye Fluo-4/AM stock was diluted to 2 μM with bath solution, and added (50 μl per well) in place of the culture medium. The plate was then incubated to load the Fluo-4/AM into cells for 60 min at 37 °C in dark environment. During the incubation, we prepared the compound plate (96-well) and the margin of plate was set as blank control due to the fringing effect. At the end of dye loading period, the remnant dye was removed using bath solution to wash the 96-well cell plate twice and then add 80 μl bath solution per well.
# T2 sequence (Q7Z2W7 whole entry, species assumed): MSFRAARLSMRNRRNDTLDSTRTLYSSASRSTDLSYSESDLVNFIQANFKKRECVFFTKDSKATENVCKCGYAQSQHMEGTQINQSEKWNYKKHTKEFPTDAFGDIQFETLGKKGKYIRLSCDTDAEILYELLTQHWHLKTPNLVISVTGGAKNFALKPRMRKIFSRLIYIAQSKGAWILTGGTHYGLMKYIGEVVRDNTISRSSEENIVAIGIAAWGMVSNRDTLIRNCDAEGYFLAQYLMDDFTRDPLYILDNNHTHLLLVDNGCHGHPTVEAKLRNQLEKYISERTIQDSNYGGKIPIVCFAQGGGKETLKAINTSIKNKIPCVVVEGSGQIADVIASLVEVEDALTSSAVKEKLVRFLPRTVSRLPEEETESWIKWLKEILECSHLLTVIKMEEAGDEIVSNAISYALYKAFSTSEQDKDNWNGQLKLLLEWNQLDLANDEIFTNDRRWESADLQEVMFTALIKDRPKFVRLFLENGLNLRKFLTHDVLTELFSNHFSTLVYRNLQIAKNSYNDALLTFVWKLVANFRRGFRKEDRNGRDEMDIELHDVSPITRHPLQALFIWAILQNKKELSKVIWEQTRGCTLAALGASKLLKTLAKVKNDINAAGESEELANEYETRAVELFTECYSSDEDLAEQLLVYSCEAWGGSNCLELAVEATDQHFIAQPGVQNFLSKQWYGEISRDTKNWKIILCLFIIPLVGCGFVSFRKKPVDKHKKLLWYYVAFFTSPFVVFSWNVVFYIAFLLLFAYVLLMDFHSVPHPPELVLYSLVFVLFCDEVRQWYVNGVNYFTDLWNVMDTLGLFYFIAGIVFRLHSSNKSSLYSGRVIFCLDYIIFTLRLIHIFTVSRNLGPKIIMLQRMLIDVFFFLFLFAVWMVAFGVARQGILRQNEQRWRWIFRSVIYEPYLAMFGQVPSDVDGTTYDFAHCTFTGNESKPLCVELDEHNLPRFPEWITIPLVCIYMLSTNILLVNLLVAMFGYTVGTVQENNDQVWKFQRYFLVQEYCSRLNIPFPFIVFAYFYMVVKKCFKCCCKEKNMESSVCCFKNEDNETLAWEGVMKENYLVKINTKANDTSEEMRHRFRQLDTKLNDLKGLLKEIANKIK
# mTRPA1, sequence (Q8BLA8 whole entry): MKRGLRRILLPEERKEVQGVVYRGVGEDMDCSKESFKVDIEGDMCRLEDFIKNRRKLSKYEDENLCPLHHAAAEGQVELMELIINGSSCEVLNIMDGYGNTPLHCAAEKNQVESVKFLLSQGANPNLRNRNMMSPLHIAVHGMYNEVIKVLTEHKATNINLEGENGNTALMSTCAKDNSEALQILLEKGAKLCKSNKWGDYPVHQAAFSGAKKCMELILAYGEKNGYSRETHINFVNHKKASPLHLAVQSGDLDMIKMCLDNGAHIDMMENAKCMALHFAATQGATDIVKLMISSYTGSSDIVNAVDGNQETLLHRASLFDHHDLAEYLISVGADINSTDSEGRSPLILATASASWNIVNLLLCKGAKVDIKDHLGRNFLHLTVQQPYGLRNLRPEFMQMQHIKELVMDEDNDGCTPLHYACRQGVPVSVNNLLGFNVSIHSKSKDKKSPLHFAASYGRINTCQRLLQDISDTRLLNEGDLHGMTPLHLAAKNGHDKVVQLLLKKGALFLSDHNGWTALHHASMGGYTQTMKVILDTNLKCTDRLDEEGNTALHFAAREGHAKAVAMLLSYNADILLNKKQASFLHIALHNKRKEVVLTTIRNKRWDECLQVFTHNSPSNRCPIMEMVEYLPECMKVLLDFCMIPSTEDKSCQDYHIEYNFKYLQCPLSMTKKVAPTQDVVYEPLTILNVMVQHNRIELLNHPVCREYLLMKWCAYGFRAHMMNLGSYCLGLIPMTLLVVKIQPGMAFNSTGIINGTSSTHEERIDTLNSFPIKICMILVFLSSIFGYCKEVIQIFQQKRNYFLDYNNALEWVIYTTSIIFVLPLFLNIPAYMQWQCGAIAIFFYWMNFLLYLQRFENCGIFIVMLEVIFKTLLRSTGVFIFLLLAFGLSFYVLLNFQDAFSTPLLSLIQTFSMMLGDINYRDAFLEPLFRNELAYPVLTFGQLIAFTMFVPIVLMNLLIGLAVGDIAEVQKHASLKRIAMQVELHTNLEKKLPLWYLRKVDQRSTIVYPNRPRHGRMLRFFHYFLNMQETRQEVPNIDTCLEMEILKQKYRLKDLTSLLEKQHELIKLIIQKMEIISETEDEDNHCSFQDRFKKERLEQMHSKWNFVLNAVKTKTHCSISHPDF
# T1 sequence (Q9HBA0 whole entry, species assumed): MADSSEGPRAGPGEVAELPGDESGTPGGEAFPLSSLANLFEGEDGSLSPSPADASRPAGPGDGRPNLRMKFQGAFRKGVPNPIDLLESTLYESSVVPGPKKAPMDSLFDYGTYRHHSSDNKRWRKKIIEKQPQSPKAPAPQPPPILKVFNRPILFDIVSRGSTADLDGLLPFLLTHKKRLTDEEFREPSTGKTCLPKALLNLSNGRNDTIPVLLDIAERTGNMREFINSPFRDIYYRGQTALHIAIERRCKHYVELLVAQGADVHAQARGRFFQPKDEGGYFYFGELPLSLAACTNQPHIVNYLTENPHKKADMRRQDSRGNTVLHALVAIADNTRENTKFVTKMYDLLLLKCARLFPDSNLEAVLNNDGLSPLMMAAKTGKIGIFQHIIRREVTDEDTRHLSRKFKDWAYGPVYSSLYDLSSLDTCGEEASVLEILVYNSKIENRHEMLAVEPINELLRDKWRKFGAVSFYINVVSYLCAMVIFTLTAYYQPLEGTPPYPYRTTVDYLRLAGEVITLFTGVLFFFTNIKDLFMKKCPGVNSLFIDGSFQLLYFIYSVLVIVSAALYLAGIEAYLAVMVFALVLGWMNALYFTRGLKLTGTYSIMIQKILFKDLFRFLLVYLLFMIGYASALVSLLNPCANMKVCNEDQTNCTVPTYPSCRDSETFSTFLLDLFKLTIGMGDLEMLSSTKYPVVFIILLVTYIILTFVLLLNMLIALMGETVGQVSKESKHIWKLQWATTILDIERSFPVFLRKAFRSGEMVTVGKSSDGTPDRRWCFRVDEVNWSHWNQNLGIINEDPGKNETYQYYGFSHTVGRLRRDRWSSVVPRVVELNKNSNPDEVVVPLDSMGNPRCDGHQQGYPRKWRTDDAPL
smiles,measurement,setting,value
"CCOC(=O)CC(SP(=S)(OC)OC)C(=O)OCC (stereo not drawn) [malathion, S-[1,2-bis (ethoxycarbonyl)ethyl] O, O-dimethyl phosphorodithioate]",activation of TRPV4,TRPV4,could not activate
same,activation of TRPM8,TRPM8,could not activate
same,activation of TRPC5,TRPC5,could not activate
same,response of mutant hTRPA1 compared to WT channels,[1],significantly reduced
same,EC50,mTRPA1,14.2 ± 1.02 µM
